Counter-ions that a name gives are not always drawn.
SMILES	melting point [°C]
CCCc1nc(C2Cc3ccccc3N2C(=O)CN)no1 (stereo not drawn) (as salt: trifluoroacetate) [Compound 90, 2,3-dihydro-β-oxo-2-(5-propyl-1,2,4-oxadiazol-3-yl)-1H-indole-1-ethanamine trifluoroacetate (1:1)]	160 to 162
NCC(=O)N1c2ccccc2CC1c1nc2cc(C(=O)O)ccc2[nH]1 (stereo not shown) (as salt: trifluoroacetate) (hydrate or solvate) [Compound 62, 2-[1-(aminoacetyl)-2,3-dihydro-1H-indol-2-yl]-1H-benzimidazole-5-carboxylic acid monohydrate trifluoroacetate (1:2)]	208 to 211
CCc1cnc(C2Cc3ccccc3N2C(=O)Nc2ccccc2[N+](=O)[O-])[nH]1 (stereo not shown)	208 to 209
CCCc1nc(C2Cc3ccccc3N2C(C)=O)no1 (stereo not shown)	93 to 94
CCc1cn(C)c(C2Cc3ccccc3N2C(C)=O)n1 (stereo not shown)	105 to 106

Results, then the compound that gave them:

melting point [°C]	SMILES
174 to 175	CCCc1cnc(C2Cc3ccccc3N2C(C)=O)[nH]1 (stereo not shown)
77 to 80	CCCc1cnc(C2Cc3ccccc3N2C(=O)C(C)N(C)C(=O)OC(C)C)[nH]1 (stereo not shown)
106 to 108	CCc1cnc(C2Cc3ccccc3N2C(=O)Nc2ccccc2N)[nH]1 (stereo not shown) (as salt: trifluoroacetate)
98 to 103	CCc1cnc(C2Cc3ccccc3N2C(=O)c2ccccc2C(=O)O)[nH]1 (stereo not shown) (as salt: trifluoroacetate)
132 to 140	CCCc1cnc(C2Cc3ccccc3N2C(=O)C(N)CC)[nH]1 (stereo not drawn) (as salt: HCl) (hydrate or solvate) [Compound 15, [2S-[1(R*),2R*]]-α-ethyl-2,3-dihydro-β-oxo-2-(4-propyl-1H-imidazol-2-yl)-1H-indole-1-ethanamine dihydrochloride dihydrate]
